Source: patent US6967261B1, “Bandage, methods of producing and using same” (Kimberly-Clark Worldwide, priority 2001, dated 2005)

Key:
human blood = test: Lee and White coagulation assay in human blood; conditions: dried form, 5 mg/ml, triplicate
Experimental: Several hemostatic agents were compared to determine relative effectiveness when reviewed with untreated human blood. Such comparison is illustrated in the following Table 23.
Each of the compounds were evaluated in the comparison against the standard control (human blood) and the negative control heparin, which is an anti-coagulant.
Lee and White Coagulation Assay in Human Blood

[1] = tested on: full thickness (excisional) wounds; test: Accelerated wound healing study, full thickness acute wound model; type: in vivo, albino rats; conditions: rats, topical on wound, over 15 days; versus gauze and Comfeel
Experimental: In the examples of the study, a series of comparative control bandage substrates were evaluated as to the speed at which wounds covered/dressed with such bandages healed. In particular, the rates of re-epithelialization were measured for wounds dressed by such control dressing materials.
Wounds were treated with test and control articles on the day of wounding (day 0) on 2,4,6,8,10, 12, and 14 days after the injury. CNA (freeze dried) was cut to the approximate size of the wound and applied over the wound. Chitosan (powder) and NA (powder) were applied over the wound to the depth that covered the underlying tissue. The gauze was cut to extend approximately 0.5 cm beyond the margins of the wound. […]
For the study, twenty four albino rats (12M/12F), each weighing between 250-300 g, were anesthetized (90 mg/Kg Ketamine HCL and 10 mg/Kg Xylazine) and the entire dorsal region of each rat was shaved. […] The epithelial thickness of the three sections of the wound (margin, center and midpoint between these two) was measured by morphometric analysis of the microscopic image using Image-Pro Plus software, Version 3.0 (Media Cybernetics). The average thickness of these sites within the wound was determined for wound healing of the entire site.

Molecule	BLOOD CLOTTING TIME (human blood)	wound healing capability (rate of epithelialization, epithelial thickness) [1]
Heparin	NC (NC = No Clot for 60 min)	–
NC(=O)c1cccnc1.O=C1O[C@H]([C@@H](O)CO)C(O)=C1O [NA, Niacinamide ascorbate]	–	dramatically increased the wound healing capability
